Source: patent US20050130989A1, “N-arylheteroaromatic products compositions containing them and use thereof” (Aventis Pharma S. A., priority 2003, published 2005)

Target: T1, tubulin (Sus scrofa, UniProt P02550+P02554)
T1 construct: Tubulin is purified from pig brain according to published methods; from tissue; host or cells: pig brain
Assay: Evaluation of the inhibition of tubulin polymerization (turbidimetry)
Assay type: biochemical, pig
Details: tubulin 10 μm (1 mg/ml), 37° C., turbidity at 350 nm; concentration that inhibits the rate of polymerization by 50%; read-out: Inhibition of tubulin polymerization IC 50 (μm)
Procedure: Tubulin is purified from pig brain according to published methods (Shelanski et al., 1973, Proc. Natl. Acad. Sci. USA, 70, 765-768. Weingarten et al., 1975, Proc. Natl. Acad. Sci. USA, 72, 1858-1862). Briefly, the brains are ground and centrifuged in an extraction buffer. The tubulin contained in the supernatant of the extract undergoes two successive cycles of polymerization at 37° C. and depolymerization at 4° C., before being separated from the MAPs (Microtubule Associated Proteins) by chromatography on a phosphocellulose P11 column (Whatman). The tubulin thus isolated is more than 95% pure. It is stored in a buffer known as RB/2 30% glycerol, the composition of which is 50 mM MES-NaOH [2-(N-morpholino)ethanesulfonic acid], pH 6.8; 0.25 mM MgCl2; 0.5 mM EGTA; 30% glycerol (v/v), 0.2 mM GTP (guanosine-5′-triphosphate).
The polymerization of tubulin to microtubules is monitored by turbidimetry as follows: the tubulin is adjusted to a concentration of 10 μm (1 mg/ml) in RB/2 30% glycerol buffer to which 1 mM GTP and 6 mM MgCl2 are added. The polymerization is triggered by an increase in temperature from 6° C. to 37° C. in a cuvette with an optical path length of 1 cm, placed in a UVIKON 931 spectrophotometer (Kontron) equipped with a thermostatically maintained cuvette holder. The increase in the turbidity of the solution is monitored at 350 nm.
The products are dissolved at 10 mM in DMSO and added at variable concentrations (0.5 to 10 μm) to the tubulin solution before polymerization. The IC50 value is defined as the concentration of product that inhibits the rate of polymerization by 50%.

T1 sequence (P02550 whole entry): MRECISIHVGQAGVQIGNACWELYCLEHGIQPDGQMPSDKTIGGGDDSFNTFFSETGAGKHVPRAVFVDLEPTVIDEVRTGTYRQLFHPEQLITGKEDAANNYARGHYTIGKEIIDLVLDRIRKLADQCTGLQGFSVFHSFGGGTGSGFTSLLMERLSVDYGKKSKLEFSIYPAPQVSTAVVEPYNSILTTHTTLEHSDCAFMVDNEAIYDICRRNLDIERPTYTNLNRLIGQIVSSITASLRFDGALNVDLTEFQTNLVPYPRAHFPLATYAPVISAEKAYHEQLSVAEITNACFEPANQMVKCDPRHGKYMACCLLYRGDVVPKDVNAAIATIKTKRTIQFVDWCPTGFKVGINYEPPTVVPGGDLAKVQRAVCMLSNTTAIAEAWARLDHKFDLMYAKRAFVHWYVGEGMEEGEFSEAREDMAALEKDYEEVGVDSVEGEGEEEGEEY
T1 sequence (P02554 whole entry): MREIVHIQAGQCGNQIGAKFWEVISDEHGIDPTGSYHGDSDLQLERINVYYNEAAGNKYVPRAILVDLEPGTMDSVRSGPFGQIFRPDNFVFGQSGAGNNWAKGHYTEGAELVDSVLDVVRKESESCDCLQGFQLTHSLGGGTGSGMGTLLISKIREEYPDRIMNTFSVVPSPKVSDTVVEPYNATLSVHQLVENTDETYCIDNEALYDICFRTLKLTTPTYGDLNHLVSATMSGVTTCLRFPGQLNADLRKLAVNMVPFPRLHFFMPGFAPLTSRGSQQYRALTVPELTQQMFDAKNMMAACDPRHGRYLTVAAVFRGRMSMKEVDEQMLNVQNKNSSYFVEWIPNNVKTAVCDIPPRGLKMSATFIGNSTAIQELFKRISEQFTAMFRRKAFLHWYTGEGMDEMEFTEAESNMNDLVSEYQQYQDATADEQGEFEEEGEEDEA

| SMILES | IC50 [µM] |
| --- | --- |
| COc1ccc(-n2nc(C)cc2C(=O)N2CCN(c3ccccc3)CC2)cc1 [3/1] | 20 |
| CSc1ccccc1N1CCN(C(=O)c2cc(C)nn2-c2ccccc2)CC1 [3/12] | 3 |
| Cc1cc(C(=O)N2CCN(c3cc(Cl)ccc3C)CC2)n(-c2cccc(Cl)c2)n1 [3/70] | 12.5 |
| Cc1cc(C(=O)N2CCN(c3ccc4c(c3)OCCO4)CC2)n(-c2cccc(F)c2)n1 [3/100] | < 25 |
| Cc1cc(C(=O)N2CCN(c3ccc(C)c(C)c3)CC2)n(-c2ccc(F)cc2)n1 [3/103] | 21 |
| Cc1cc(C(=O)N2CCN(c3ccccn3)CC2)n(-c2ccccc2)n1 [3/107] | 12.5 |
| Cc1ccc(C)c(N2CCN(C(=O)c3cc(C)nn3-c3ccccc3)CC2)c1 [3/108] | 3.5 |
| Cc1cc(C(=O)N2CCN(c3ccccc3F)CC2)n(-c2ccccc2)n1 [3/111] | 12.5 |
| Cc1cccc(-n2nc(C)cc2C(=O)N2CCN(c3cccc(C)c3C)CC2)c1 [3/114] | 0.8 |
| CCOc1ccccc1N1CCN(C(=O)c2cc(C)nn2-c2cccc(C)c2)CC1 [3/115] | 20 |
| Cc1cc(C(=O)N2CCN(c3cc(Cl)ccc3C)CC2)n(-c2ccc(F)cc2)n1 [3/117] | 7 |
| Cc1cc(C(=O)N2CCN(c3cccc(C)c3C)CC2)n(-c2cccc(Cl)c2)n1 [3/122] | 7.5 |
| Cc1cc(C(=O)N2CCN(c3cccc4ccccc34)CC2)n(-c2cccc(Cl)c2)n1 [3/124] | 12 |
| COc1ccc(Cl)cc1N1CCN(C(=O)c2cc(C)nn2-c2cccc(Cl)c2)CC1 [3/127] | 1.8 |

Further lines, results first:

| IC50 [µM] | SMILES |
| --- | --- |
| < 25 | COc1ccccc1N1CCN(C(=O)c2cc(C)nn2-c2ccc(C)cc2)CC1 [3/130] |
| 4.3 | COc1cccc(-n2nc(C)cc2C(=O)N2CCN(c3ccccc3C)CC2)c1 [3/134] |
| 4.2 | COc1cccc(-n2nc(C)cc2C(=O)N2CCN(c3ccccc3SC)CC2)c1 [3/137] |
| 2 | COc1cccc(N2CCN(C(=O)c3cc(C)nn3-c3ccccc3)CC2)n1 [Example E8, [4-(6-Methoxypyrid-2-yl)piperazin-1-yl](5-methyl-2-phenyl-2H-pyrazol-3-yl)-methanone] |
| 1.55 | Cc1ccc(C)c(-n2nc(C)cc2C(=O)N2CCN(c3cccc(Cl)c3)CC2)c1 [Example E47, [4-(3-Chlorophenyl)piperazin-1-yl][2-(2,5-dimethylphenyl)-5-methyl-2H-pyrazol-3-yl]methanone] |
| 20.2 | Cc1cc(C(=O)N2CCN(c3cccc(Cl)c3)CC2)n(-c2ccc([N+](=O)[O-])cc2)n1 [Example E49, [4-(3-Chlorophenyl)piperazin-1-yl][5-methyl-2-(4-nitrophenyl)-2H-pyrazol-3-yl]-methanone] |
| 3.5 | O=C(c1cc(Br)nn1-c1ccc(Br)cc1)N1CCN(c2cccc(Cl)c2)CC1 [Example E64, [5-Bromo-2-(4-bromophenyl)-2H-pyrazol-3-yl][4-(3-chlorophenyl)piperazin-1-yl]methanone] |
| 17.1 | COc1cc(OC)cc(N2CCN(C(=O)c3cc(Br)nn3-c3ccc(Br)cc3)CC2)c1 [Example E81, [5-Bromo-2-(4-bromophenyl)-2H-pyrazol-3-yl][4-(3,5-dimethoxyphenyl)-piperazin-1-yl]methanone] |
| 20 | COC(=O)CCC(=O)Nc1cccc(N2CCN(C(=O)c3cc(C)nn3-c3ccccc3)CC2)c1 [Example E83, Methyl N-{3-[4-(5-methyl-2-phenyl-2H-pyrazole-3-carbonyl)piperazin-1-yl]-phenyl}succinamate] |
| 18 | O=C(c1cc(CSc2ccccc2)nn1-c1ccccc1)N1CCN(c2cccc(Cl)c2)CC1 [Example E102, [4-(3-Chlorophenyl)piperazin-1-yl](2-phenyl-5-phenylsulfanylmethyl-2H-pyrazol-3-yl)methanone] |
| 3 | CCOC(=O)/C=C/c1cc(C(=O)N2CCN(c3cc(OC)cc(OC)c3)CC2)n(-c2ccccc2)n1 [Example E112, Ethyl E-3-{5-[4-(3,5-dimethoxyphenyl)piperazine-1-carbonyl]-1-phenyl-1H-pyrazol-3-yl}acrylate] |
